Source: publication PMC5944028, “Nonclinical and clinical pharmacological characterization of the potent and selective cathepsin K inhibitor MIV-711” (Journal of Translational Medicine, 2018)

How the values were obtained:
rat cathepsin K = biological target: T1, rat cathepsin K (Rattus norvegicus, UniProt O35186); assay: Recombinant enzyme assay, rat cathepsin K; assay type: biochemical; details: footnote a: IC50
T1 construct: made in house; host or cells: E. coli
Text: Recombinant cathepsin K enzymes from all species were expressed in E. coli, purified and activated. Human cathepsin F and cathepsin S were expressed in Baculovirus, purified and activated. Purified human cathepsins B and H (Athens Research Technology), cathepsin L (Calbiochem), and cathepsin V (R & D Systems) were purchased.
H-D-Ala_Leu-Lys-AMC was used as the substrate in assays of cathepsin K from non-rodent species (human, dog, rabbit and guinea pig), and Z-Leu-Arg-AMC was used as the substrate in assays of cathepsin K from rodent species (mouse and rat). […]
Assays were carried out in white polystyrene 96-well plates in a final volume of 100 µL. […] Plates were read in a Fluoroskan Ascent (Thermo Labsystems, Helsinki, Finland) in kinetic mode, with excitation and emission filters of 390 and 460 nm, respectively. Rates were determined by linear regression of the fluorescence/time data in Excel. Rates were fitted by non-linear regression to either the competitive inhibition equation, with the substrate concentration fixed at the value in the assay and the KM fixed to the value previously determined, or the IC50 equation using GraphPad Prism (GraphPad, version 6, San Diego, USA) to obtain Ki or IC50 values, respectively.

serum CTX-I = assay: Human serum CTX-I, single ascending dose study; assay type: in vivo, human healthy subjects
Text: (§1) Twenty-seven healthy male and female subjects (18 male and 9 female) of any ethnic origin (24 White, 1 Asian, 1 Black, 1 Black/Caribbean White), aged between 19 and 64 years, and with a body mass index (BMI) between 18.0 and 32.0 kg/m^2, were selected for this study. Inclusion criteria for enrollment followed the standard practice for first-in-man studies.
(§2) This was a randomized, double-blind, placebo-controlled, sequential, single-ascending dose study conducted at a single site with the objective of evaluating the safety, tolerability, pharmacokinetics (PK) and pharmacodynamics of MIV-711. Subjects were randomized into 3 groups using a computer-generated pseudo-random permutation procedure. Each group consisted of 9 subjects with at least 3 subjects of each gender per group and subjects participated in 1–2 treatment periods. There was a minimum of 10 days between dose escalations and a minimum of 20 days between dosing occasions for individual subjects. For each subsequent dosing occasion, the decision to escalate the dose to the next level was taken after a thorough review of the safety, tolerability and PK data. In each treatment period, 7 subjects received MIV-711 and 2 received placebo (comprising of 1 subject of each gender). Dosing occurred on the morning of Day 1 following an overnight fast and subjects were kept in the fasted state until approximately 4.5 h after dosing. MIV-711 was given as a combination of 10 or 40 mg hard gelatin capsules, while placebo was given in similar capsules of identical appearance.
Blood samples were collected at pre-dose, 4, 8, 24 and 48 h post-dose and processed into serum for the measurement of CTX-I concentrations.
The quantification of CTX-I in monkey plasma samples and human serum samples was performed using a commercially available kit (Serum CrossLaps ELISA, IDS Nordic, Herlev, Denmark). The levels of CTX-I in monkey urine samples were measured using a commercially available kit (Urine BETA CrossLaps ELISA, IDS Nordic). The quantification of NTX-I in monkey samples was performed using a commercially available kit (Osteomark NTx Urine, Wampole Laboratories, Inc, Princeton, USA). Urinary levels of CTX-II in monkey samples were measured using a commercially available kit (Urine CrossLaps EIA, IDS Nordic). The concentrations of biomarkers in the urine samples were corrected for creatinine concentrations. The creatinine levels in urine were determined at Swedish University of Agricultural Sciences, using the enzymatic assay (cat no. 8L24-01) on the Abbott system Architect c4000.

[1] = Human safety and tolerability, single ascending dose study; assay type: in vivo, human healthy subjects
Text: as §1, §2
Standard safety assessments were performed throughout the study and included physical examination, vital signs, 12-lead electrocardiogram (ECG), continuous ECG Holter monitoring, hematology, biochemistry, urinalysis and adverse event monitoring.
In the nonclinical studies, two-way ANOVA was used to assess the effects of MIV-711 on plasma CTX-I. Pearson’s correlation was used when comparing plasma exposure of MIV-711 with inhibitory effects on CTX-I. Student’s unpaired t test was used when assessing the effect of MIV-711 on urine biomarkers. In the clinical study, PK parameters were summarized by dose level using descriptive statistics. The dose proportionality for AUC and Cmax was assessed by using a power model with determination of the linear regression slope with a 95% confidence interval. Change in CTX-I from baseline at 24 h after dose was calculated by dose level and summarized using descriptive statistics. In addition, the 95% confidence interval for the difference between each MIV-711 group and the placebo group for these variables was calculated by dose level. Pearson’s correlation was used when comparing plasma exposure of MIV-711 with inhibitory effects on CTX-I. A time-matched and placebo-corrected approach was used to evaluate the effects of MIV-711 on the QTcF interval from the Holter ECG recordings. The change-from-baseline QTcF at post-dose time points was analyzed using an ANCOVA model including the treatment, time (categorical), and treatment-by-time interaction as fixed effects, baseline QTcF as a covariate, and subject as random effect. A p value < 0.05 was considered statistically significant. Data are expressed as mean ± SEM.

[2] = single ascending doses 20–600 mg

T1 sequence (O35186 115-329): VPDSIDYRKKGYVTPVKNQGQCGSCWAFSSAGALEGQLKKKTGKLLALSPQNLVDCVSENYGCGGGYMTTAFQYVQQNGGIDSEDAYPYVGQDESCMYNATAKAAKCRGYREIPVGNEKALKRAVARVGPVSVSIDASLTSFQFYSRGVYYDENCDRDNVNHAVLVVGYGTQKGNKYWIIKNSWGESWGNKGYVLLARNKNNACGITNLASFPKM

SMILES: C#C[C@@H]1CN(C(=O)[C@H](CC(C)C)NC(=O)c2ccc(-c3nc(N4CCN(C)CC4)sc3F)cc2)[C@@H]2C(=O)CO[C@H]12 [MIV-711]
- IC50 (rat cathepsin K): 240 nM
- Inhibition of serum CTX-I versus baseline at 24 h (serum CTX-I; 20 mg single dose): 20%
- Reduction of CTX-I at 24 h post-dose (serum CTX-I; 100 mg single dose): 54%
- Inhibition of serum CTX-I versus baseline at 24 h (serum CTX-I; 600 mg single dose): 79%
- Exposure required for 50% reduction of CTX-I at 24 h post dose (serum CTX-I; AUC0–24h): 1.3 µmol/L/h
- Adverse events considered possibly related to treatment ([1]; 6/35, all mild): 17%
- Subjects reporting adverse events ([1]; 11/35 MIV-711-treated subjects): 31%
- Upper confidence interval of the projected QTcF effect at the highest observed plasma levels ([1]; maximum dose of 600 mg): below 10 ms
- Safety and tolerability [1, 2]: safe and well-tolerated
- Serious adverse events [1, 2]: no serious adverse events
